Results from BindingDB's records for doi:10.7270/Q2D798VP (Broad Institute, 2009).

These compounds were tested against T1, Zinc finger protein mex-5 (Caenorhabditis elegans, UniProt Q9XUB2) (assay: MEX-5/TCR-2 RNA interaction inhibitors, dose response, biochemical, C. elegans, fluorescence polarization (AID 1960)).
T1 sequence (Q9XUB2 whole entry): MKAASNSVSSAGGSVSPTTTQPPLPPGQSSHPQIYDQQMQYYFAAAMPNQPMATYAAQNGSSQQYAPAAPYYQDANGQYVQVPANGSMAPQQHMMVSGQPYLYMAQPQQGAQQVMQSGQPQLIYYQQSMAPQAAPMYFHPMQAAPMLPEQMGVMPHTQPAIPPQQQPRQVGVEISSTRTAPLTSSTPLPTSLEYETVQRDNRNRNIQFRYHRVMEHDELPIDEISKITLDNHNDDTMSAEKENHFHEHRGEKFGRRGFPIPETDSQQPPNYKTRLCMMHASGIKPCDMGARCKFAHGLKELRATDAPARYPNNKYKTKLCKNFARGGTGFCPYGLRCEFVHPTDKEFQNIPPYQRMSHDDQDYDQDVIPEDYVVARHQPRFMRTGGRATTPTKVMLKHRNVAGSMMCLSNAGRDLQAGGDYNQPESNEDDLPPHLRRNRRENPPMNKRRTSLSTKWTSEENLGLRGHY

| SMILES | EC50 |
| --- | --- |
| c1ccc(C2=Nc3nnnn3C(c3cccs3)C2)cc1 (stereo not given) [5-Phenyl-7-thiophen-2-yl-4,7-dihydro-tetrazolo[1,5-a]pyrimidine] | > 300 µM |
| N#CC1C(=N)OC2=C(C(=O)CCC2)C1c1cc2c(cc1Br)OCO2 (stereo not given) [2-azanyl-4-(6-bromanyl-1,3-benzodioxol-5-yl)-5-oxidanylidene-4,6,7,8-tetrahydrochromene-3-carbonitrile] | > 300 µM |
| CCCCOc1c(Br)cc(CN=O)cc1OCC [3-bromo-4-butoxy-5-ethoxy-benzaldoxime] | > 300 µM |
| CN1CCC2=C(C#N)C(=N)C(C#N)(C#N)[C@H](c3cccc(Cl)c3)C2C1 (stereo partly drawn) [(8S)-6-amino-8-(3-chlorophenyl)-2-methyl-1,3,8,8a-tetrahydroisoquinoline-5,7,7-tricarbonitrile] | 11.6 µM |
| Cc1nnc(SC(=Cc2ccc(-c3ccc(Cl)cc3)o2)C(=O)O)[nH]1 [(E)-3-[5-(4-chlorophenyl)furan-2-yl]-2-[(5-methyl-1H-1,2,4-triazol-3-yl)sulfanyl]prop-2-enoic acid] | 29.6 µM |
| Cc1ccc(C2C3CN(C(C)C)CCC3=C(C#N)C(=N)C2(C#N)C#N)cc1 (stereo not given) [SMR000034220] | 8.29 µM |
| COc1ccc(C2C(C(=O)c3cccs3)C(=O)C(=O)N2c2nnc(C)s2)cc1OC (stereo not given) [2-(3,4-dimethoxyphenyl)-1-(5-methyl-1,3,4-thiadiazol-2-yl)-4-oxidanyl-3-thiophen-2-ylcarbonyl-2H-pyrrol-5-one] | 5.19 µM |
| Cc1ccc(Cl)c2c1=NC(=O)C=2NNc1ccccc1 | > 300 µM |
| COc1cccc(C2C(C(=O)c3cc4cccc(OC)c4o3)C(=O)C(=O)N2c2cc(C)on2)c1OC (stereo not given) [2-(2,3-dimethoxyphenyl)-3-[(7-methoxy-1-benzofuran-2-yl)carbonyl]-1-(5-methyl-1,2-oxazol-3-yl)-4-oxidanyl-2H-pyrrol-5-one] | > 300 µM |
| COc1ccc(N2C(=O)C(=Cc3ccco3)C(=O)NC2=S)cc1 [MLS001204507] | 3.9 µM |
| O=C(O)c1cc(-c2ccc(CN=Nc3ccc([N+](=O)[O-])cn3)o2)ccc1Cl [2-chloro-5-[5-[[(5-nitropyridin-2-yl)hydrazinylidene]methyl]furan-2-yl]benzoic acid] | 6.29 µM |
| N#CC1=C2CCOC[C@@H]2[C@@H](c2ccsc2)C(C#N)(C#N)C1=N [(8R,8aR)-6-amino-8-(3-thienyl)-1,3,8,8a-tetrahydroisochromene-5,7,7-tricarbonitrile] | > 300 µM |
| CCOc1cc(C=C2SC(Nc3ccc(CC)cc3)=NC2=O)ccc1OCC(=O)O [2-[2-ethoxy-4-[(Z)-[2-(4-ethylanilino)-4-oxo-1,3-thiazol-5-ylidene]methyl]phenoxy]acetic acid] | 149 µM |
| N#CC1=C2CCCCC2C(c2cccnc2)C(C#N)(C#N)C1=N (stereo not given) [2-amino-4-(3-pyridinyl)-4a,5,6,7-tetrahydro-4H-naphthalene-1,3,3-tricarbonitrile] | 17.5 µM |
| CN(C)[C@@H]1C(=O)C(C(N)=O)C(=O)[C@@]2(O)C(=O)C3C(=O)c4c(O)cccc4[C@@](C)(O)[C@H]3[C@H](O)[C@@H]12 (stereo partly drawn) [(2E,4S,4aR,5S,5aR,6S,12aS)-2-[azanyl(oxidanyl)methylidene]-4-(dimethylamino)-6-methyl-5,6,10,11,12a-pentakis(oxidanyl)-4,4a,5,5a-tetrahydrotetracene-1,3,12-trione] | 29.9 µM |
| Cc1cccc(Nc2nc(O)cs2)c1 [2-(3-methylanilino)-1,3-thiazol-4-one] | > 300 µM |
| O=C1NC(=O)N(CCc2ccccc2)C(=O)C1=CNNC(=O)c1ccccc1 [SMR000433912] | 150 µM |
| CCOC(=O)N1CCC2=C(C#N)C(=N)C(C#N)(C#N)[C@H](c3ccsc3)[C@H]2C1 [(8R,8aR)-6-amino-5,7,7-tricyano-8-(3-thienyl)-1,3,8,8a-tetrahydroisoquinoline-2-carboxylic acid ethyl ester] | 58.7 µM |
| Cc1ccc(-c2c(CCC(C)N=O)oc3ccc(Cl)cc23)o1 (stereo not given) [4-[5-chloro-3-(5-methyl-2-furanyl)-2-benzofuranyl]-2-butanone oxime] | > 300 µM |
| O=C(O)c1ccccc1N=NCc1c(Sc2nnnn2-c2ccccc2)nc2ccccn2c1=O [MLS000775267] | 116 µM |
